According to patent US20140315972A1, “RS)-2-(2-oxo-4-phenylpyrrolidin-1-yl)acetamide compound having modulatory activity with a commensurate effect, pharmaceutical substance (variants) and its application, composition (variants) thereof” (priority 2011, published 2014):
Where “and” joins values, the source holds several entries; their conditions need not be identical. Equal values may be shown once. Marks after values point to notes of the source that are not given here.

Columns and labels:
Assay type in all cases: in vivo
[1] = Plasma electrolyte balance at course administration; details: rats
cortisol = experiment: Plasma cortisol level (Tsf-activity) in August and Wistar rats; details: for Tsf-activity by cortisol at 3 hours vs control / plasma cortisol at 60 min / Tsf-activity by cortisol at 60 min vs control: i.p. 1.0-750 mg/kg, averaged
rats [2] = experiment: Hypoxia with hypercapnia in 7-day-old rats
mice [3] = experiment: Conflict situation (tranquilizing effect); details: 300 mg/kg
Experimental: The tranquilizing effect of Phenotropil (300 mg/kg) was studied by the method of conflict situation and conflict of two reflexes (Vogel, 1971; Sanger et al., 1991; File, 1995; Molodavkin, Voronina, 1995), associated in this case with the desire to satisfy the motivation (drinking) and application of punishment (electric shock, received after each attempt to satisfy the motivation). In the created conflict situation, the animal is experiencing a strong negative stress. Tranquilizers reduce the level of anxiety and psychoemotional stress.

mice [4] = experiment: Duration of swimming in cold (2° C.) and normal (25° C.) water; details: for Duration of swimming at day 28: 4-week administration 50 mg/kg
Experimental: Stimulatory effect on the duration of swimming in cold (2° C.) and normal (25° C.) water (Table 8.1-8.1.1) of Phenotropil (25 and 50 mg/kg) compared with the control (distilled water) and Benzedrine (2.5 mg/kg) was studied in white outbred male mice (18-26 g) compared to control (distilled water) when intraperitoneally administered, 60 min after the administration and with a course administration for 4 weeks administration on day 28 (Table 8.1.2). […] At normal temperature of water, the effect of Benzedrine was not modified and stayed at 34%.
The advantage of psychomodulator Phenotropil is obvious both with the single dose and the course use, by the effect on physical performance and stability of the body, both in normal and more adverse temperature conditions.

rats [5] = experiment: Anti-ulcerogenic action under Ds-conditions; details: listed as Phenotropil
rats [6] = experiment: Forced swimming by Porsolt (behavioral despair), rat pups; details: for Duration of immobilization vs control: listed as Phenotropil
Experimental: The antidepressant effect of Phenotropil was studied in adult rats (185-218 g) and rat pups of 28-35 days of age (85-110 g). The test drugs were injected intraperitoneally in the first case and intragastrically in the second case 40 min before the tests. The methods of behavioral despair during forced swimming (Porsolt et al., 1978) and forced swimming with freely rotating wheels (Nomura et al., 1982) were used.

mice [7] = experiment: Open field test; details: for Distance covered during 1st min (horizontal motor activity) / Distance during 2nd min (horizontal motor activity) / Distance during 3rd min (horizontal motor activity) / Explorations during 2nd min / Explorations during 3rd min / Number of explorations (holes) during 1st min / Number of washings during 1st min / Total distance at 3 min (horizontal motor activity) / Total number of explorations at 3 min / Total number of visits to the center at 3 min / Total number of washings at 3 min / Visits to the center during 1st min / Visits to the center during 2nd min / Visits to the center during 3rd min / Washings during 2nd min / Washings during 3rd min / vertical motor activity, 1st min (Distance covered) / vertical motor activity, 2nd min / vertical motor activity, 3rd min / vertical motor activity, total at 3 min: mice
Experimental: Study of the effect of Phenotropil (100, 200, 300 mg/kg) on motor activity and exploratory behavior by the open field test on mice (16-24 g) in comparison with olanzapine (1 mg/kg) is shown in Tables 5-5.4. Olanzapine at higher doses has sedative activity, so for comparison with Phenotropil, the drug was used only at a dose of 1 mg/kg. The drugs and distilled water to control groups were injected intraperitoneally 40 minutes prior to the study. […] This indicates the ability of the drug to reversibility, unlike olanzapine.

[8] = 4-week administration 300 mg/kg

Structure (SMILES): NC(=O)CN1CC(c2ccccc2)CC1=O (racemic) [Compound 1, (RS)-2-(2-oxo-4-phenylpyrrolidine-1-yl)acetamide]
- serum Ca ([1]; 4-week administration 50 mg/kg): 4.21 ± 0.23 mEq/l
- serum K ([1]; 4-week administration 50 mg/kg): 3.15 ± 0.15 mEq/l
- serum Na ([1]; 4-week administration 50 mg/kg): 127.3 ± 2.71 mEq/l
- serum Ca [1, 8]: 4.69 ± 0.24 mEq/l
- serum K [1, 8]: 3.44 ± 0.20 mEq/l
- serum Na [1, 8]: 125.7 ± 3.43 mEq/l
- Tsf-activity by cortisol at 3 hours vs control (cortisol; August rats): +6.8%
- plasma cortisol at 60 min (cortisol; August rats): 45.6 ± 4.1 nmol/L
- Tsf-activity by cortisol at 60 min vs control (cortisol; August rats, listed as (RS)-2-(2-oxo-4-phenylpyrrolidin-1-yl)acetamide): +14.1%
- Tsf-activity by cortisol at 60 min vs control (cortisol; August rats, listed as Phenotropil): +14.1* %
- modulation factor change compared to the control (cortisol; August rats, single dose): −11.5%
- Tsf-activity by cortisol at 3 hours vs control (cortisol; Wistar rats): −7.6%
- plasma cortisol at 60 min (cortisol; Wistar rats): 50.9 ± 4.4 nmol/L
- Tsf-activity by cortisol at 60 min vs control (cortisol; Wistar rats, listed as (RS)-2-(2-oxo-4-phenylpyrrolidin-1-yl)acetamide): +2.0%
- biologically active dose (reliable effect on plasma cortisol), starting from (cortisol; rats, i.p., range tested 0.5-750.0 mg/kg): ≥ 1.0 mg/kg
- Duration of life of animals (rats [2]; 50 mg/kg): 83.3 ± 7.9 min
- Duration of life of animals (rats [2]; 100 mg/kg): 123.2 ± 2.9 min
- reduction of amount of intakes for three minutes (mice [3]): 74.4%
- reduction of anxiety and emotional stress in the conflict situation vs control (mice [3]): 291.0%
- Number of water intakes for 3 min (mice [3]; mice): 7.3 ± 3.9
- The time between the first and second intake of water (mice [3]; mice): 31.1 ± 3.4 s
- Duration of swimming (mice [4]; single dose 25 mg/kg i.p.): 161.90 ± 15.00 min
- Duration of swimming (mice [4]; single dose 50 mg/kg i.p.): 209.83 ± 14.85 min
- Duration of swimming at day 28 (mice [4]; water 2° C.): 2.34 ± 0.15 min
- Duration of swimming (mice [4]; water 2° C., single dose 25 mg/kg i.p.): 2.10 ± 0.17 min
- Duration of swimming (mice [4]; water 2° C., single dose 50 mg/kg i.p.): 2.30 ± 0.22 min
- Duration of swimming at day 28 (mice [4]; water 25° C.): 222.03 ± 10.95 min
- Duration of swimming vs control (mice [4]; water 25° C., single dose 25 mg/kg i.p.): +35%
- ulcer number vs control (100) (rats [5]; 25 mg/kg + 5.0% glucose solution, 25 mg/kg): −45% and −42 * %
- ulcer number vs control (100) (rats [5]; 50 mg/kg + 5.0% glucose solution, 50 mg/kg): −63% and −63 * %
- ulcer number vs control (100) (rats [5]; 100 mg/kg + 5.0% glucose solution, 100 mg/kg): −80% and −80 * %
- Duration of immobilization (rats [6]; intragastric 100 mg/kg): 86.35 ± 51.97 s
- Duration of immobilization vs control (rats [6]; intragastric 100 mg/kg): −79.8% and −79.77 * %
- Duration of immobilization (rats [6]; intragastric 200 mg/kg): 118.72 ± 80.04 s
- Duration of immobilization vs control (rats [6]; intragastric 200 mg/kg): −72.2% and −72.19 * %
- increase of horizontal locomotor activity (mice [7]; 100 mg/kg): 112.2%
- increase of number of visits to the center vs control (mice [7]; 100 mg/kg): 111%
- increase of total exploratory behavior index (mice [7]; 100 mg/kg): 50%
- increase of total vertical locomotor activity (mice [7]; 100 mg/kg): 237.5%
- reduction of total index of washes vs control (mice [7]; 100 mg/kg): 25%
- decrease of total exploratory behavior index (mice [7]; 200 mg/kg): 32%
- increase of horizontal locomotor activity (mice [7]; 200 mg/kg): 151.8%
- increase of number of visits to the center vs control (mice [7]; 200 mg/kg): 155%
- vertical activity over three minutes vs control (mice [7]; 200 mg/kg): −6.3%
- increase of horizontal locomotor activity (mice [7]; 300 mg/kg): 99.5%
- increase of number of visits to the center vs control (mice [7]; 300 mg/kg): 133%
- increase of total index of explored holes (mice [7]; 300 mg/kg): 27%
- number of rearings at the first minute vs control (mice [7]; 300 mg/kg): −75%
- total number of rearings for 3 minutes vs control (mice [7]; 300 mg/kg): +56%
- Distance covered during 1st min (horizontal motor activity) (mice [7]; 100 mg/kg i.p.): 23.7 ± 5*^
- Distance during 2nd min (horizontal motor activity) (mice [7]; 100 mg/kg i.p.): 22.5 ± 3.1
- Distance during 3rd min (horizontal motor activity) (mice [7]; 100 mg/kg i.p.): 44 ± 10.7
- Explorations during 2nd min (mice [7]; 100 mg/kg i.p.): 1.5 ± 0.4
- Explorations during 3rd min (mice [7]; 100 mg/kg i.p.): 1.3 ± 0.7
- Number of explorations (holes) during 1st min (mice [7]; 100 mg/kg i.p.): 0.5 ± 0.3
- Number of washings during 1st min (mice [7]; 100 mg/kg i.p.): 0.2 ± 0.2
- Total distance at 3 min (horizontal motor activity) (mice [7]; 100 mg/kg i.p.): 90.2 ± 8.7
- Total number of explorations at 3 min (mice [7]; 100 mg/kg i.p.): 3.3 ± 0.9
- Total number of visits to the center at 3 min (mice [7]; 100 mg/kg i.p.): 3.9 ± 0.6
- Total number of washings at 3 min (mice [7]; 100 mg/kg i.p.): 0.3 ± 0.2^
- Visits to the center during 1st min (mice [7]; 100 mg/kg i.p.): 0.7 ± 0.5
- Visits to the center during 2nd min (mice [7]; 100 mg/kg i.p.): 2.2 ± 0.8
- Visits to the center during 3rd min (mice [7]; 100 mg/kg i.p.): 1 ± 0.5
- Washings during 2nd min (mice [7]; 100 mg/kg i.p.): 0.1 ± 0.2^
- Washings during 3rd min (mice [7]; 100 mg/kg i.p.): 0 ± 0
- vertical motor activity, 1st min (Distance covered) (mice [7]; 100 mg/kg i.p.): 2.3 ± 1.1
- vertical motor activity, 2nd min (mice [7]; 100 mg/kg i.p.): 3.8 ± 1.7
- vertical motor activity, 3rd min (mice [7]; 100 mg/kg i.p.): 4.7 ± 1.6
- vertical motor activity, total at 3 min (mice [7]; 100 mg/kg i.p.): 10.8 ± 4.2
- Distance covered during 1st min (horizontal motor activity) (mice [7]; 200 mg/kg i.p.): 31.7 ± 2.8
- Distance during 2nd min (horizontal motor activity) (mice [7]; 200 mg/kg i.p.): 41.8 ± 7.0
- Distance during 3rd min (horizontal motor activity) (mice [7]; 200 mg/kg i.p.): 33.5 ± 4.7
- Explorations during 2nd min (mice [7]; 200 mg/kg i.p.): 0.8 ± 0.5
- Explorations during 3rd min (mice [7]; 200 mg/kg i.p.): 0.5 ± 0.5
- Number of explorations (holes) during 1st min (mice [7]; 200 mg/kg i.p.): 0.2 ± 0.2
- Number of washings during 1st min (mice [7]; 200 mg/kg i.p.): 0 ± 0
- Total distance at 3 min (horizontal motor activity) (mice [7]; 200 mg/kg i.p.): 107 ± 11.5
- Total number of explorations at 3 min (mice [7]; 200 mg/kg i.p.): 1.5 ± 0.9
- Total number of visits to the center at 3 min (mice [7]; 200 mg/kg i.p.): 4.7 ± 0.7
- Visits to the center during 1st min (mice [7]; 200 mg/kg i.p.): 0.3 ± 0.2
- Visits to the center during 2nd min (mice [7]; 200 mg/kg i.p.): 2.7 ± 0.4
- Visits to the center during 3rd min (mice [7]; 200 mg/kg i.p.): 1.7 ± 0.4
- Washings during 2nd min (mice [7]; 200 mg/kg i.p.): 0 + 0 *
- Washings during 3rd min (mice [7]; 200 mg/kg i.p.): 0 ± 0
- vertical motor activity, 1st min (Distance covered) (mice [7]; 200 mg/kg i.p.): 0 ± 0
- vertical motor activity, 2nd min (mice [7]; 200 mg/kg i.p.): 1.3 ± 0.7
- vertical motor activity, 3rd min (mice [7]; 200 mg/kg i.p.): 1.7 ± 0.7
- vertical motor activity, total at 3 min (mice [7]; 200 mg/kg i.p.): 3.0 ± 1.3
- Distance covered during 1st min (horizontal motor activity) (mice [7]; 300 mg/kg i.p.): 29.7 ± 12.3
- Distance during 2nd min (horizontal motor activity) (mice [7]; 300 mg/kg i.p.): 27.2 ± 10.2
- Distance during 3rd min (horizontal motor activity) (mice [7]; 300 mg/kg i.p.): 28 ± 6.4
- Explorations during 2nd min (mice [7]; 300 mg/kg i.p.): 1.5 ± 0.8
- Explorations during 3rd min (mice [7]; 300 mg/kg i.p.): 1.0 ± 0.8
- Number of explorations (holes) during 1st min (mice [7]; 300 mg/kg i.p.): 0.3 ± 0.2
- Number of washings during 1st min (mice [7]; 300 mg/kg i.p.): 0.2 ± 0.2
- Total distance at 3 min (horizontal motor activity) (mice [7]; 300 mg/kg i.p.): 84.8 ± 28.0
- Total number of explorations at 3 min (mice [7]; 300 mg/kg i.p.): 2.8 ± 1.4
- Total number of visits to the center at 3 min (mice [7]; 300 mg/kg i.p.): 4.2 ± 0.8
- Total number of washings at 3 min (mice [7]; 300 mg/kg i.p.): 0.2 ± 0.2
- Visits to the center during 1st min (mice [7]; 300 mg/kg i.p.): 1.2 ± 0.4
- Visits to the center during 2nd min (mice [7]; 300 mg/kg i.p.): 1.3 ± 0.5
- Visits to the center during 3rd min (mice [7]; 300 mg/kg i.p.): 1.7 ± 0.5
- Washings during 2nd min (mice [7]; 300 mg/kg i.p.): 0 ± 0
- Washings during 3rd min (mice [7]; 300 mg/kg i.p.): 0 ± 0
- vertical motor activity, 1st min (Distance covered) (mice [7]; 300 mg/kg i.p.): 0.3 ± 0.2
- vertical motor activity, 2nd min (mice [7]; 300 mg/kg i.p.): 2 ± 1.2
- vertical motor activity, 3rd min (mice [7]; 300 mg/kg i.p.): 2.7 ± 1.1
- vertical motor activity, total at 3 min (mice [7]; 300 mg/kg i.p.): 5.0 ± 1.8
